Assay results: US20060270640A1, “Method of preventing, medicating, and/or treating hypocalcemia of domestic mammal” (Mercian Corporation, priority 2004, published 2006)

Assays:
[1] = Dose-response test of 1,25-(OH)2D3: Ca/Cre, iP/Cre, Mg/Cre in urine (Example 3); assay type: in vivo, cow; conditions: for iP/Cre in urine: vs immediately before administration
Description: (§1) Hereinafter, the present invention will further be described with reference to Examples and Comparative Example. However, the present invention is not intended to be limited to them by any means. In the examples described below, a 1,25-(OH)2D3 concentration in plasma was determined using a radioimmunoassay kit (1,25-(OH)2D RIA kit, Immunodiagnostic Systems Limited, UK). The Ca concentrations, inorganic phosphorus (iP) concentrations, and magnesium (Mg) concentrations in plasma and urine were determined by orthocresolphthalein complexone (O-CPC), molybdenum (Mo), and xylidyl blue methods, respectively. A creatinine concentration in urine was determined by a Jaffe method. Calcium (Ca), inorganic phosphorus (iP), and magnesium (Mg) concentrations in urine were indicated in the ratios relative to creatinine (Cre) (Ca/Cre, iP/Cre, and Mg/Cre, respectively).
(§2) The dose-response test of 1,25-(OH)2D3 by an intravaginal administration route was performed with five 3 to 9-year-old ovariectomized Holstein cows having body weights of 616 to 804 kg as test animals.
(§3) The cows were hitched to a partition after and provided with 5.3 kg of timothy hay, 0.18 kg of alfalfa hay, 0.71 kg of beet pulp pellet, and 1.7 kg of commercially-available grain mix on a daily basis. The cows were measured on a DM basis and freely provided with water. A daily mineral intake was set to 48.4 g for calcium, 20.2 g of inorganic phosphorus, and 12.7 g for magnesium, which sufficiently exceeded the NRC recommendation.
(§4) To the five cows, 1,25-(OH)2D3 was respectively administered at 0.125, 0.25, 0.5, and 1.0 μg/kg (by body weight) as an intravaginal dose level and 1.0 μg/kg (by body weight) as an intravenous injection dose level at an interval of 2 weeks or more according to a 5×5 Latin square design.
(§5) The 1,25-(OH)2D3 (manufactured by Mercian Corporation) used was in the form of crystalline powder, which was dissolved in 99% ethanol at 200 μg/mL and cryopreserved at −20° C. until use.
(§6) A drug composed of 5 mL of 20% ethanol solution containing 1,25-(OH)2D3 at 0.125, 0.25, 0.5, or 1.0 μg/kg (by body weight) was administered to a vaginal lumen using a Split Universal Sheath (IMV Int. CO., France) by a rectovaginal cavity method. The vulva was then bonded with an adhesive in order to prevent the 1,25-(OH)2D3 solution from being unintentionally excreted from the vaginal lumen. Intravenous administration was performed using a cannula (14-ga cannula for animals, manufactured by Nipro Medical Industries Ltd.) mounted in advance for the collection of a blood sample.
Urine were collected by urethral catheterization simultaneously with the collection of blood samples from the cows that underwent the intravaginal administration of 1,25-(OH)2D3 at 0.125 and 1.0 μg/kg (by body weight) and the intravenous injection of 1,25-(OH)2D3at 1.0 μg/kg (by body weight), to determine creatinine, calcium, inorganic phosphorus, and magnesium concentrations in the urine. Plasma and urine samples were cryopreserved at −20° C. until analysis.

[2] = intravenous, four dose levels (30, 90, 270, and 600 μg); increase not directly related to dose; cited from earlier work
[3] = Dose-response test of 1,25-(OH)2D3, intravaginal vs intravenous: calcium, inorganic phosphorus, magnesium in plasma (Example 3); assay type: in vivo, cow
Description: as §1, §2, §3, §4, §5, §6
A heparinized blood sample was collected through the cannula immediately before the administration of 1,25-(OH)2D3 (0 hour) and at 2, 4, 6, 12, 24, 48, 72, 96, and 120 hours after administration.
Next, the blood was immediately centrifuged, and 1,25-(OH)2D3, calcium, inorganic phosphorus, and magnesium concentrations in plasma were determined.

[4] = 0 hour, intravaginal 0.125 μg/kg
[5] = 0 hour, intravaginal 0.25 μg/kg
[6] = 24 hours after intravaginal 0.125 μg/kg
[7] = 24 hours after intravaginal 1.0 μg/kg

C=C1/C(=C\C=C2/CCC[C@]3(C)[C@@H]([C@H](C)CCCC(C)(C)O)CC[C@@H]23)C[C@@H](O)C[C@@H]1O [1,25-(OH)2D3, 1,25-dihydroxyvitamin D3]
Ca/Cre, iP/Cre and Mg/Cre in urine ([1]; intravaginal 0.125 μg/kg): no influence | Ca/Cre in urine ([1]; via the vagina 1.0 μg/kg, at 24 hours after administration): significantly rose | Mg/Cre in urine ([1]; via the vagina 1.0 μg/kg, from 6 hours to 12 hours after administration): significantly high | iP/Cre in urine ([1]; via the vagina 1.0 μg/kg, from 48 hours to 120 hours): significantly high | Mg/Cre in urine ([1]; via the vein 1.0 μg/kg, at 6 hours after administration): significantly high | Ca/Cre in urine ([1]; via the vein 1.0 μg/kg, at 12 hours and 24 hours after administration): significantly rose | iP/Cre in urine ([1]; via the vein 1.0 μg/kg, from 72 hours to 120 hours): significantly high | excretion of calcium into urine [2]: increases | calcium concentration in plasma [3, 4]: 8.9 ± 0.5 mg/dL | inorganic phosphorus concentration in plasma [3, 4]: 5.3 ± 1.0 mg/dL | magnesium concentration in plasma [3, 4]: 2.2 ± 0.2 mg/dL | calcium concentration in plasma [3, 5]: 8.9 ± 0.4 mg/dL | inorganic phosphorus level in plasma [3, 5]: 4.7 ± 0.6 mg/dL | magnesium concentration in plasma [3, 5]: 2.0 ± 0.2 mg/dL | calcium concentration in plasma ([3]; 0 hour, intravaginal 0.5 μg/kg): 8.9 ± 0.2 mg/dL | inorganic phosphorus concentration in plasma ([3]; 0 hour, intravaginal 0.5 μg/kg): 5.3 ± 0.6 mg/dL | magnesium concentration in plasma ([3]; 0 hour, intravaginal 0.5 μg/kg): 2.2 ± 0.2 mg/dL | calcium concentration in plasma ([3]; 0 hour, intravaginal 1.0 μg/kg): 8.8 ± 0.7 mg/dL | inorganic phosphorus concentration in plasma ([3]; 0 hour, intravaginal 1.0 μg/kg): 5.4 ± 1.3 mg/dL | magnesium concentration in plasma ([3]; 0 hour, intravaginal 1.0 μg/kg): 2.1 ± 0.1 mg/dL | calcium concentration in plasma ([3]; 0 hour, intravenous 1.0 μg/kg): 8.8 ± 0.5 mg/dL | inorganic phosphorus concentration in plasma ([3]; 0 hour, intravenous 1.0 μg/kg): 5.2 ± 1.3 mg/dL | magnesium concentration in plasma ([3]; 0 hour, intravenous 1.0 μg/kg): 2.2 ± 0.2 mg/dL | inorganic phosphorus concentration in plasma ([3]; 12 hour after intravenous 1.0 μg/kg): 7.2 ± 0.8 mg/dL | inorganic phosphorus level in plasma ([3]; 12 hours (start of 12 to 120 hours) after intravaginal 0.25 μg/kg): 6.7 ± 0.9 mg/dL | magnesium concentration in plasma ([3]; 12 hours after intravaginal 0.5 μg/kg): 1.9 ± 0.2 mg/dL | inorganic phosphorus concentration in plasma [3, 6]: 7.7 ± 0.8 mg/dL | magnesium concentration in plasma [3, 6]: 1.9 ± 0.1 mg/dL | magnesium concentration in plasma ([3]; 24 hours after intravaginal 0.25 μg/kg): 1.8 ± 0.1 mg/dL | inorganic phosphorus concentration in plasma ([3]; 24 hours after intravaginal 0.5 μg/kg): 7.9 ± 0.9 mg/dL | inorganic phosphorus concentration in plasma [3, 7]: 8.0 ± 1.2 mg/dL | magnesium concentration in plasma [3, 7]: 1.8 ± 0.2 mg/dL | magnesium concentration in plasma ([3]; 24 hours after intravenous 1.0 μg/kg): 1.9 ± 0.3 mg/dL | inorganic phosphorus concentration in plasma, peak ([3]; 24 hours after intravenous 1.0 μg/kg (start of peak period)): 9.1 ± 1.6 mg/dL | calcium concentration in plasma, peak ([3]; 48 hours after intravaginal 0.125 μg/kg, significantly high 12 to 120 hours): 11.1 ± 0.9 mg/dL | calcium concentration in plasma, peak ([3]; 48 hours after intravaginal 0.25 μg/kg, significantly high 12 to 120 hours): 11.2 ± 0.7 mg/dL | calcium concentration in plasma, peak ([3]; 48 hours after intravaginal 0.5 μg/kg, significantly high 6 to 120 hours): 11.5 ± 0.6 mg/dL | calcium concentration in plasma, peak ([3]; 48 hours after intravaginal 1.0 μg/kg, significantly high 6 to 120 hours): 12.0 ± 0.6 mg/dL | inorganic phosphorus level in plasma ([3]; 120 hours (end of 12 to 120 hours) after intravaginal 0.25 μg/kg): 8.6 ± 1.2 mg/dL | magnesium concentration in plasma ([3]; 120 hours after intravaginal 0.125 μg/kg): 1.8 ± 0.3 mg/dL | magnesium concentration in plasma ([3]; 120 hours after intravaginal 0.25 μg/kg): 1.7 ± 0.2 mg/dL | magnesium concentration in plasma ([3]; 120 hours after intravaginal 0.5 μg/kg): 1.7 ± 0.2 mg/dL | magnesium concentration in plasma ([3]; 120 hours after intravaginal 1.0 μg/kg): 1.7 ± 0.4 mg/dL | magnesium concentration in plasma ([3]; 120 hours after intravenous 1.0 μg/kg): 1.7 ± 0.2 mg/dL | inorganic phosphorus concentration in plasma, peak ([3]; end of peak period 'from 24 hours to 12 hours' after intravenous 1.0 μg/kg): 9.0 ± 1.2 mg/dL | dose-relationship of changes in calcium, inorganic phosphorus and magnesium concentrations in plasma ([3]; intravaginal, four doses 0.125-1.0 μg/kg): no dose-relationship | calcium concentration in plasma, peak ([3]; intravenous 1.0 μg/kg): 11.5 ± 1.2 mg/dL
